Reference: US20240368133A1, “Compounds for the Treatment of Pain, in Particular, Neuropathic Pain, and/or Other Diseases or Disorders that are Associated with AT2R and/or AT2R Mediated Signaling” (Confo Therapeutics N.V., priority 2021, published 2024)
Structures can show the parent of a compound that is named as a salt. Where two headings read alike, the source gives them in different places.

Tests used:
[1] = target: human AT2R fused to Cb23 (Homo sapiens, UniProt P50052); test: Radioligand binding assay, displacement of 125I-[Sar1, Ile8]-Angiotensin II, hAT2R Cb23
human AT2R fused to Cb23, sequence (P50052 whole entry, looked up, the tested form may be a part): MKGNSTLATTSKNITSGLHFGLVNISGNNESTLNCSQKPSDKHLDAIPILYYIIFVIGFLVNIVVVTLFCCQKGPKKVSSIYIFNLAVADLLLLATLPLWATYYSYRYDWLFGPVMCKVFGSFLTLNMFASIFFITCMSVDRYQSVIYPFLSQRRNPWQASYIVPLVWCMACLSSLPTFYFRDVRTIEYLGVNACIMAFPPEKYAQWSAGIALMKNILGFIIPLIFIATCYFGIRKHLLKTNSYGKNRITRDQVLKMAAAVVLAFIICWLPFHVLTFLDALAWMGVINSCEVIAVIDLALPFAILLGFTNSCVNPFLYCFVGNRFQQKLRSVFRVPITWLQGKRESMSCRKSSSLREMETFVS
Description: (§1) All synthesized ligands were evaluated in a radioligand assay by displacing ^125I-[Sar1, Ile8]-Angiotensin II (Perkin Elmer, NEX248050UC) from human AT2R fused to Cb23 or human/rodent/cynomolgus/minipig/dog WT AT2R in HEK-293 cells membrane preparations, using C21 (Vicore Pharma) and Angiotensin II (endogenous ligand) as reference. The affinity was determined using an eight-point dose-response curve, each point performed in duplicates. The compounds were also evaluated in a counterscreen binding assay for displacement of ^125I-[Sar1, Ile8]-Angiotensin II binding to human AT1R in HEK-293 cell membranes. For AT1R, the percent displacement was determined at 1 μM and […] (in duplicates) or using an eight-point dose-response curve, each point performed in duplicates with Candesartan and Losartan used as reference.
(§2) For the AT2R/AT1R binding assays, cell membranes, expressing AT2R_Cb23, AT2R or AT1R, were incubated with 0.05 nM ^125I-[Sarl, Ile8]-Ang II. The ligand competition assay was performed in a total volume of 100 μL assay buffer (50 mM Tris, 5 mM MgCl2, 1 mM EDTA, 0.1% BSA, pH 7.4), at concentrations ranging from […] to 10 μM. For each experiment, each ligand concentration was tested in duplicate. Non-specific binding (NSB) was determined by the inclusion of 10 μM unlabeled [Sarl]-Ang II (Sigma Aldrich). The reaction was initiated by the addition of radioligand, after which the plates were incubated at 25° C. for one hour. The reaction was terminated by rapid filtration using a vacuum harvester, applying six washes with 100 μL of ice-cold wash buffer (50 mM Tris.HCl, pH 7.4). The filter plates GF/C (Perkin Elmer) were pre-soaked in 0.5% PEI. The residual amount of radioactivity was determined via liquid scintillation counting. IC50 values, representing the concentration at which each ligand displaced 50% of ^125I-[Sarl, Ile8]-Ang II, were calculated using GraphPad Prism 7.02 by applying a Non-linear regression equation (variable slope, four parameters) on the data. The obtained values serve as affinity estimates for each ligand and their ability to compete against the radioligand for binding with AT2R or AT1R, respectively.

[2] = target: human AT1R (Homo sapiens (Human), UniProt P30556); test: Counterscreen radioligand binding assay, displacement of 125I-[Sar1, Ile8]-Angiotensin II, hAT1R WT; details: 125I-[Sar1, Ile8]-Ang II, semi-quantitative score
human AT1R, sequence (P30556 whole entry): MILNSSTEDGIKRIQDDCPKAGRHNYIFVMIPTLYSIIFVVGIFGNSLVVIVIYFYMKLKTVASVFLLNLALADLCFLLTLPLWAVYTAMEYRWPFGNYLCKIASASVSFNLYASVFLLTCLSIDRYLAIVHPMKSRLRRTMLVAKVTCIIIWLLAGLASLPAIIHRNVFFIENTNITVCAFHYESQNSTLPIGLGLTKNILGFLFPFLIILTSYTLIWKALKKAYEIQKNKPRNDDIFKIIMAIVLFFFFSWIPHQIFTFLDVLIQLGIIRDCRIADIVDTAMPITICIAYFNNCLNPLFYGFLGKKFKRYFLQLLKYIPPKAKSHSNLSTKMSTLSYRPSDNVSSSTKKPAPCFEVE
Description: as §1, §2

[3] = displacement of 125I-[Sar1, Ile8]-Angiotensin II, human AT2R fused to Cb23, HEK-293 cell membrane preparations, read-out: Binding affinity on hAT2R_Cb23 IC50

IC50 [1, 3] [µM] | SMILES | also measured
33.6 | O=C(O)c1ccccc1CN1CCN(c2nc3ccccc3s2)CC1 [Compound A-01, 2-[[4-(1,3-benzothiazol-2-yl)piperazin-1-yl]methyl]benzoic acid] | 
22.8 | CCS(=O)(=O)NC(=O)c1ccccc1N1CCN(Cc2nc3ccccc3s2)CC1 [Compound A-04, 2-[4-(1,3-benzothiazol-2-ylmethyl)piperazin-1-yl]-N-ethylsulfonyl-benzamide] | 
28.8 | O=[N+]([O-])c1ccc2nc(N3CCN(Cc4ccccc4-c4nn[nH]n4)CC3)sc2c1 [Compound A-07, 6-nitro-2-[4-[[2-(2H-tetrazol-5-yl)-phenyl]methyl]-piperazin-1-yl]-1,3-benzothiazole] | 
42.9 | Cn1c(CN2CCN(c3ccccc3-c3nn[nH]n3)CC2)nc2ccccc21 [Compound A-15] | 
21.7 | Cc1ccc(-c2nn[nH]n2)c(N2CCN(Cc3nc4ccccc4n3C)CC2)c1 [Compound A-16, 1-methyl-2-[[4-[5-methyl-2-(2H-tetrazol-5-yl)phen-yl]piperazin-1-yl]-methyl]benzimid-azole] | 
111 | O=c1[nH]c(CN2CCN(c3ccccc3-c3nn[nH]n3)CC2)nc2ccccc12 [Compound A-26, 2-[[4-[2-(2H-tetrazol-5-yl)phen-yl]piperazin-1-yl]-methyl]-3H-quin-azolin-4-one] | 
35.9 | Cc1ccc(-c2nn[nH]n2)c(N2CCN(Cc3nc4ccccc4c(=O)[nH]3)CC2)c1 [Compound A-27, 2-[[4-[5-methyl-2-(2H-tetrazol-5-yl)-phenyl]piperazin-1-yl]methyl]-3H-quinazolin-4-one] | 
42.4 | O=c1[nH]c(CN2CCN(c3cc(C(F)(F)F)ccc3-c3nn[nH]n3)CC2)nc2ccccc12 [Compound A-29, 2-[[4-[2-(2H-tetrazol-5-yl)-5-(trifluoromethyl)-phenyl]piperazin-1-yl]methyl]-3H-quinazolin-4-one] | 
114 | CC(C)=Cc1ccc(-c2nn[nH]n2)c(N2CCN(Cc3nc4ccccc4c(=O)[nH]3)CC2)c1 [Compound A-30, 2-[[4-[5-(2-methyl-prop-1-enyl)-2-(2H-tetrazol-5-yl)-phenyl]piperazin-1-yl]methyl]-3H-quinazolin-4-one] | 
61.7 | COCCOc1ccc(-c2nn[nH]n2)c(N2CCN(Cc3nc4ccccc4s3)CC2)c1 [Compound A-56, 2-[[4-[5-(2-meth-oxyethoxy)-2-(2H-tetrazol-5-yl)phen-yl]piperazin-1-yl]-methyl]-1,3-benzo-thiazole] | 
17.2 | c1ccc2sc(CN3CCN(c4cc(OCC5COC5)ccc4-c4nn[nH]n4)CC3)nc2c1 [Compound A-58, 2-[[4-[5-(oxetan-3-ylmethoxy)-2-(2H-tetrazol-5-yl)phen-yl]piperazin-1-yl]-methyl]-1,3-benzo-thiazole] | 
 | c1ccc2sc(CN3CCN(c4cc(NC5CC5)ccc4-c4nn[nH]n4)CC3)nc2c1 [Compound A-61, 3-[4-(1,3-benzothi-azol-2-ylmethyl)-piperazin-1-yl]-N-cyclopropyl-4-(2H-tetrazol-5-yl)aniline hydrochloride] | IC50 [1]: 14.7 µM
 | c1ccc2sc(CN3CCN(c4cc(NCC5CC5)ccc4-c4nn[nH]n4)CC3)nc2c1 [Compound A-62, 3-[4-(1,3-benzothi-azol-2-ylmethyl)-piperazin-1-yl]-N-(cyclopropylmeth-yl)-4-(2H-tetrazol-5-yl)aniline] | inhibition at 1 µM ([2]; compound at 1 μM, read-out: % Displaced radioligand at 1 μM): < 30%; inhibition at 10 µM ([2]; compound at 10 μM, read-out: % Displaced radioligand at 10 μM): < 30%
21.6 | COCCNc1ccc(-c2nn[nH]n2)c(N2CCN(Cc3nc4ccccc4s3)CC2)c1 [Compound A-63, 3-[4-(1,3-benzothi-azol-2-ylmethyl)-piperazin-1-yl]-N-(2-methoxyethyl)-4-(2H-tetrazol-5-yl)aniline] | 
11.8 | CN1CCN(c2ccc(-c3nn[nH]n3)c(N3CCN(Cc4nc5ccccc5s4)CC3)c2)CC1 [Compound A-66, 2-[[4-[5-(4-methyl-piperazin-1-yl)-2-(2H-tetrazol-5-yl)-phenyl]piperazin-1-yl]methyl]-1,3-benzothiazole] | 
11.7 | CC(C)Cc1ccc(-c2nn[nH]n2)c(N2CCN(Cc3cc(=O)n4c(ccn4C)n3)CC2)c1 [Compound A-74, 5-[[4-[5-isobutyl-2-(2H-tetrazol-5-yl)-phenyl]piperazin-1-yl]methyl]-1-methyl-pyrazolo-[1,5-a]pyrimidin-7-one] | 

IC50 [1, 3] [µM] | SMILES | also measured
23.7 | c1cnnc(CN2CCN(c3cc(C4CC4)ccc3-c3nn[nH]n3)CC2)c1 [Compound A-91, 3-[[4-[5-cyclopropyl-2-(2H-tetrazol-5-yl)phenyl]piperazin-1-yl]methyl]pyridazine] | 
15.6 | Cc1nnc(CN2CCN(c3cc(CC(C)C)ccc3-c3nn[nH]n3)CC2)o1 [Compound A-92] | 
43.3 | Cc1nc(=O)cc(CN2CCN(c3cc(CC(C)C)ccc3-c3nn[nH]n3)CC2)[nH]1 [Compound A-95, 6-[[4-[5-isobutyl-2-(2H-tetrazol-5-yl)phenyl]piperazin-1-yl]methyl]-2-methyl-1H-pyrimidin-4-one] | 
13.2 | Cc1noc(CN2CCN(c3cc(CC(C)C)ccc3-c3nn[nH]n3)CC2)n1 [Compound A-96, 5-[[4-[5-isobutyl-2-(2H-tetrazol-5-yl)-phenyl]piperazin-1-yl]methyl]-3-methyl-1,2,4-oxa-diazole] | 
33.9 | Cc1nccc(CN2CCN(c3cc(CC(C)C)ccc3-c3nn[nH]n3)CC2)n1 [Compound A-99] | 
16.5 | Cc1cc(=O)nc(CN2CCN(c3cc(CC(C)C)ccc3-c3nn[nH]n3)CC2)[nH]1 [Compound A-100, 2-[[4-[5-isobutyl-2-(2H-tetrazol-5-yl)phenyl]piperazin-1-yl]methyl]-6-methyl-1H-pyrimidin-4-one] | 
12.2 | Cc1ncc(CN2CCN(c3cc(CC(C)C)ccc3-c3nn[nH]n3)CC2)cn1 [Compound A-103, 5-[[4-[5-isobutyl-2-(2H-tetrazol-5-yl)-phenyl]piperazin-1-yl]methyl]-2-methyl-pyrimidine] | 
54.9 | CC(C)Cc1ccc(-c2nn[nH]n2)c(N2CCN(Cc3cccc(C#N)n3)CC2)c1 [Compound A-107, 6-[[4-[5-isobutyl-2-(2H-tetrazol-5-yl)-phenyl]piperazin-1-yl]methyl]pyr-idine-2-carbonitrile] | 
41.7 | CC(C)Cc1ccc(-c2nn[nH]n2)c(N2CCN(Cc3ncon3)CC2)c1 [Compound A-108, 3-[[4-[5-isobutyl-2-(2H-tetrazol-5-yl)-phenyl]piperazin-1-yl]methyl]-1,2,4-oxadiazole] | 
40.4 | CC(C)Cc1ccc(-c2nn[nH]n2)c(N2CCN(Cc3cn(C)cn3)CC2)c1 [Compound A-109, 1-[5-isobutyl-2-(2H-tetrazol-5-yl)phen-yl]-4-[(1-methyl-imidazol-4-yl)meth-yl]piperazine] | 
17.8 | CC(C)Cc1ccc(-c2nn[nH]n2)c(N2CCN(Cc3ccn(C)n3)CC2)c1 [Compound A-110, 1-[5-isobutyl-2-(2H-tetrazol-5-yl)phen-yl]-4-[(1-methyl-pyrazol-3-yl)meth-yl]piperazine] | 
18.7 | Cc1ncc(CN2CCN(c3cc(CC(C)C)ccc3-c3nn[nH]n3)CC2)n1C [Compound A-114, 1-[(2,3-dimethyl-imidazol-4-yl)meth-yl]-4-[5-isobutyl-2-(2H-tetrazol-5-yl)-phenyl]piperazine] | 
52.6 | COc1cc(N2CCN(Cc3nc4ccccc4s3)CC2)c(-c2nn[nH]n2)cc1F [Compound A-117, 2-[[4-[4-fluoro-5-methoxy-2-(2H-tetrazol-5-yl)phen-yl]piperazin-1-yl]-methyl]-1,3-benzo-thiazole] | 
18.1 | Fc1cc(-c2nn[nH]n2)c(N2CCN(Cc3nc4ccccc4s3)CC2)cc1C1CC1 [Compound A-124, 2-[[4-[5-cycloprop-yl-4-fluoro-2-(2H-tetrazol-5-yl)phen-yl]piperazin-1-yl]-methyl]-1,3-benzo-thiazole] | 
22.6 | Cc1cc(-c2nn[nH]n2)c(N2CCN(Cc3nc4ccccc4s3)CC2)cc1C1CC1 [Compound A-126, 2-[[4-[5-cycloprop-yl-4-methyl-2-(2H-tetrazol-5-yl)phen-yl]piperazin-1-yl]-methyl]-1,3-benzo-thiazole] | 
28.8 | CCNc1cc(-c2nn[nH]n2)c(N2CCN(Cc3nc4ccccc4s3)CC2)cc1C1CC1 [Compound A-130, 4-[4-(1,3-benzothi-azol-2-ylmethyl)-piperazin-1-yl]-2-cyclopropyl-N-eth-yl-5-(2H-tetrazol-5-yl)aniline] | 
